Values quoted from earlier work, collected in US12508269B2, “Parenteral dosage form of carboplatin” (priority 2018, dated 2025).

In the case of [NH2][Pt]1([NH2])[O]C(=O)C2(CCC2)C(=O)[O]1 [carboplatin, diammine [1,1-cyclobutanedicarboxylato(2-)-0, 0′]], the “time for which reconstituted or diluted aqueous solutions were stable” value (Myres et al, refrigeration in the dark or room temperature exposed to fluorescent light) is given as “seven” and the “time for which reconstituted solutions are stable” value (pack insert of Paraplatin and references) is given as 8 h.
